Assay results taken from patent US6177592A, “Compounds” (priority 1997, dated 2001).

Assays:
NO production = experiment: Inhibition of LPS-induced NO production in RAW264.7; type: cell-based, mouse; details: RAW 264.7
Protocol: Inhibition activity of GM to NO production and to cell damage was measured as follows using mouse macrophage cell strain RAW264.7 cells (ATCC TIB 71) and LPS.
Dulbecco-modified Eagle's medium (manufactured by Life Technologies Oriental; 11054-020) containing 2 mM of L-glutamine (manufactured by Life Technologies Oriental; 25030-149) containing no Phenol Red containing 5 ml of 10% fetal calf serum (manufactured by Gibco) containing 1.5×10^6 cells of RAW 264.7 was incubated in a six-well tissue culture plate in the presence of 5% carbon dioxide gas at 37° C. for 12 hours, 50μl of 50μg/ml LPS (manufactured by Sigma; L-2012) was added, then each 50 μl of 250 )i M Mn or 100 μH GM was added to each well, incubation was further continued for additional 12 hours and, after that, NO2^- produced by oxidation of NO in the medium and amount of viable cell numbers were measured. Incidentally, a sect-Lon where no LPS was added and a section where no GM was added were prepared as controls. […]

Fas antigen = Fas antigen expression in Molt-3 cells; type: cell-based, human
Protocol: (2) Influence of GM on Fas antigen expression (productive induction) in Jurkat cells and Molt-3 cells was measured as follows. In a 10% FCS-containing RPMI 1640 medium containing 0, 1, 5, 10 or 20 μM of cyclopentenone or GM, 5×10^5 cell/ml of Jurkat cells or Molt-3 cells were incubated at 37° C. for 24 hours in the presence of 5% of CO2 and then subjected to a two-step immunostaining using an anti-Fas antibody (manufactured by Boehringer-Ingelheim) in accordance with a method of Munker [Munker, R.: Ann. Hematol., volume 70, pages 15-17 (1995)].
Fluorescence intensity of the stained 1×10^4 cells was measured by a flow cytometer (Orthocytron; manufactured by Ortho Diagnostic Systems) and ratio of the cell showing a predetermined or higher fluorescence intensity which were Fas antigen-expressing cells was calculated.
(3) Molt-3 cells were incubated for 1, 3, 6, 12 or 24 hours after addition of 10 (i M of GM by the same manner as in Example 12-(2) and then the ratio of the cells which expressed Fas antigen was measured by the same method as in Example 12-(2)sa

CEM-SS cells = experiment: Survival rate of CEM-SS cells; type: cell-based; details: one day
Protocol: (§1) GM (0, 4, 8 or 16 μM) was added to 2×10^5 cell/ml of CEM-SS cells (ATCC CCL-119) and to CEM-SS cells infected with HIV-1IIIB (wherein not less than 90% of the CEM-SS cells were infected with the HIV-1IIIB; hereinafter, referred to as CEM-3B) incubation was conducted for one day, viable cell numbers and dead cell numbers were counted and survival cell rate was calculated.

[1] = tested on: CEM-3B cells (CEM-SS cells infected with HIV-1IIIB); experiment: Survival rate of HIV-1IIIB-infected CEM-SS cells (CEM-3B); type: cell-based; details: for survival rate of cells: one day
Protocol: as §1

antigen-specific IgE = experiment: Antigen-specific IgE production (48-hour rat PCA); type: in vivo, rat (Wistar); details: for IgE Titer: three days, control 64
Protocol: Yale rats of Wistar strain of five weeks age (one group consisting of five rats) (Nippon SLC) were sensitized by an intraperitoneal injection of 100 μl of 0.01% solution of egg white albumin (Sigma) in an aqueous physiological saline solution and 100 μl of Alum (trade name: Imject Alum; Pierce) and, after 14 days, blood was collected from abdominal artery.
The collected blood was centrifuged (at 2000 rpm for five minutes), plasma was separated and the amount of antigen-specific IgE was measured by a 48-hour rat passive cutaneous anaphylaxis (PCA) reaction.
Thus, serum was diluted with a physiological saline solution in a successively doubling manner ranging from 1/4 to 1/64 and each 0.1 ml thereof was subcutaneously injected to hair-clipped back of male rats of Wistar strain of seven weeks age. After 48 hours from the subcutaneous injection, 1 ml of a mixture of 0.05% egg white albumin and 0.5% Evans Blue (manufactured by Nacalai Tesque) was injected from tail vein. After 30 minutes from the injection from the tail vein, rats were subjected to decapitation and to exanguinated death, blue spots appeared on the back were observed, the spots with a diameter of 5 mm or more were judged to be positive and the highest dilution was adopted as an IgE titer.
In the GM-administered groups, 3 mg/kg or 30 mg/kg of GM was intraperitoneally administered once daily for three days from the antigen-sensitized day while, in the control group, distilled water was intraperitoneally administered by the same manner.

N[C@@H](CCC(=O)N[C@@H](CSC1C=C(O)C(=O)C1)C(=O)NCC(=O)O)C(=O)O (some centres unmarked) [GM, 2-hydroxy-4-glutathion-S-yl-2-cyclopenten-1-one]
inhibition of NO production (NO production): inhibited the NO production induced by LPS | ratio of Fas antigen-expressing cells, time course (Fas antigen; 10 μM, 1-24 hours): increased after 12 hours from the incubation and further increase was noted after 24 hours | ratio of Fas antigen-expressing cells (Fas antigen; 1-10 μM, 24 hours): the ratio of Fas antigen-expressing cells increased on a concentration-dependent manner | survival rate of cells (CEM-SS cells; 16 μM): the survival rate of CEM-SS cells decreased as well | survival rate of cells (CEM-SS cells; 4 or 8 μM): survival rate did not decrease in CEM-SS cells | survival rate of cells ([1]; 16 μM, compared with CEM-SS): decreased more significantly | survival rate of cells ([1]; 4 or 8 μM): the survival rate significantly decreased depending upon the concentration | selective cytocidal effect to HIV-infected cells, antiviral action to HIV ([1]; Example 15): selective cytocidal effect to HIV-infected cells | IgE Titer (antigen-specific IgE; 3 mg/kg/day i.p.): 32 | IgE Titer (antigen-specific IgE; 30 mg/kg/day i.p.): 8 | inhibiting activity to IgE production (in words) (antigen-specific IgE; rat, in vivo): inhibited by administration of GM in a dose-dependent manner
